Read-outs that look alike come from different tables or passages of the source.

Results on 9 molecules are retold here after article PMC4967369 (Xenobiotica; the fate of foreign compounds in biological …, 2015).

The conditions of series [1]: in vivo.
For series [2] the following is noted: dog, in vivo.
The test system of the next series is dog liver microsomes. Put plainly: Isoflavone glucuronidation assay, dog liver microsomes. Particulars: pooled dog liver microsomes (n=16). The class given is in vitro ADME. (Liver microsomes are vesicles of endoplasmic reticulum, rich in cytochrome P450 enzymes.)
Assay in series [3]: as above
The class given is in vitro ADME. Conditions: mixed-breed, dog, pH 7.5.

Series [4] deals with liver microsomes from 13 different species. The series is described as follows: Isoflavone glucuronidation by liver microsomes from 13 different species. The class given is in vitro ADME, 13 species.
Series [5] can be described thus: Isoflavone glucuronidation assay, human liver microsomes. The class given is in vitro ADME. Particulars: human, pH 7.5.
The subject of the next series is human liver microsomes. The series is described as above. The class given is in vitro ADME. Conditions: pooled human liver microsomes (n=48).
The nature of series [6]: Isoflavone glucuronidation assay, cat liver microsomes. The class given is in vitro ADME. Conditions: domestic short-hair, cat, pH 7.5.
For series [7], the system named is cat liver microsomes. The description is as above. The class given is in vitro ADME. Conditions: for Vmax, 7-OH-glucuronidation: pooled cat liver microsomes (n=5); for Rank of cat liver glucuronidation rate among species: pooled liver microsomes, 35 µM substrate, 13 species compared.
For series [8] the following is noted: for Urinary concentration, Unconjugated: without enzyme treatment, normalized to creatinine.
The conditions of series [9]: for % Glucuronides: percentage of free and conjugated isoflavones that are glucuronide; for Urinary concentration, Unconjugated: without enzyme treatment, normalized to creatinine.
Series [10] has as its system mongoose liver microsomes. The series is described as follows: Estradiol glucuronidation assay, mongoose liver microsomes. The class given is in vitro ADME. Conditions: mongoose livers, 100 µM substrate.
In the next series the test system is ferret liver microsomes. Put plainly: Estradiol glucuronidation assay, ferret liver microsomes. The class given is in vitro ADME. Particulars: ferret livers, 100 µM substrate.
Series [11] has as its system cat liver microsomes. Put plainly: Estradiol glucuronidation assay, cat liver microsomes. The class given is in vitro ADME. Conditions: cat livers, 100 µM substrate.
The mark [12] stands for this setting: pooled liver microsomes, 35 µM substrate.

As to `CC(C(=O)c1c(O)cc(O)cc1O)c1ccc(O)cc1` (stereo not drawn) [6-hydroxy-O-desmethylangolensin], the “Detection of metabolite in urine” value in [1] and in series [2] was “not detected” in each case.

Usually Km stands for the concentration of substrate that gives half-maximal velocity. As to `O=c1c(-c2ccc(O)cc2)coc2cc(O)ccc12` [Daidzein, daidzein], the “Vmax, 7-OH-glucuronidation” value with dog liver microsomes is 8.10 ± 0.1 nmoles/min/mg protein; in the series with human liver microsomes, 1.30 ± 0.05 nmoles/min/mg protein; in the series on cat liver microsomes [7], 1.61 ± 0.06 nmoles/min/mg protein. The Michaelis constant (Km) in series [3] (pooled dog liver microsomes) amounted to 55.4 ± 3.8 µM; in series [5] (pooled human liver microsomes) it was 26.6 ± 5.1 µM; in series [6] (pooled cat liver microsomes), 41.9 ± 6.6 µM. In [4] (35 µM, pH 7.5), the “4'-OH-glucuronidation, detection” value is on record as “could not be measured in five of the 13 species”. Moreover, the “Rank of cat liver glucuronidation rate among species” value in the series with cat liver microsomes [7] is on record as “within the lowest three out of 13 species”.

Regarding `O=C1c2c(O)cc(O)cc2OCC1c1ccc(O)cc1` (stereo not drawn) [Dihydrogenistein, dihydrogenistein], the “Urinary concentration, Glucuronides” value in series [8] (pooled dog urine (n=10), after bovine liver β-glucuronidase treatment, mean) came out at 631 pmoles / mg creatinine; in series [9] (pooled cat urine (n=18), after bovine liver β-glucuronidase treatment, mean), 0 pmoles / mg creatinine. Further, the “% Glucuronides” value is on record as 33% in series [8] (pooled dog urine (n=10), percentage of free and conjugated isoflavones that are glucuronide); 0% in [9] (pooled cat urine (n=18)); “undetectable” in [9] (pooled cat urine (n=18), listed as dihydrogenistein). Further, the “Urinary concentration, Total” value in series [8] (pooled dog urine (n=10), sum of free and conjugated concentrations, mean) was found to be 1919 pmoles / mg creatinine; in series [9] (pooled cat urine (n=18), sum of free and conjugated concentrations, mean) it was 2998 pmoles / mg creatinine. For the same molecule, the “Urinary concentration, Unconjugated” value in [8] (pooled dog urine (n=10), mean) is 0 pmoles / mg creatinine; in [9] (pooled cat urine (n=18), mean), 0 pmoles / mg creatinine.

For `Oc1ccc([C@H]2COc3cc(O)ccc3C2)cc1` [Equol, equol], the “Equol to daidzein ratio” value in [8] (individual dog urine samples with detectable equol (three of ten)) is on record as 0.004–0.017. The “Urinary concentration, Unconjugated” value in series [8] (pooled dog urine (n=10), mean) worked out at 0 pmoles / mg creatinine. Also, the figures for the “Vmax, 7-OH-glucuronidation” value in the series on dog liver microsomes, in the series on human liver microsomes and in the series on cat liver microsomes [7] were 14.3 ± 0.6 nmoles/min/mg protein, 17.4 ± 0.7 nmoles/min/mg protein and 20.4 ± 1.4 nmoles/min/mg protein, respectively. Also, the Km in series [3] (pooled dog liver microsomes) was 32.6 ± 6.9 µM; in series [5] (pooled human liver microsomes), 31.8 ± 5.1 µM; in [6] (pooled cat liver microsomes) it was 132 ± 26 µM. For the same molecule, the “4'-OH-glucuronidation, detection” value in [4] (setting [12]) is listed as “not detected in any of the species evaluated”. In addition, the “7-OH-glucuronidation, detection” value in series [4] (setting [12]) is reported as “detected in all species livers’ evaluated except for glucuronidation of equol by mongoose liver”. Moreover, the “Rank of cat liver glucuronidation rate among species” value with cat liver microsomes [7] was “within the lowest three out of 13 species”.

For `O=c1c(-c2ccc(O)cc2)coc2cc(O)cc(O)c12` [Genistein, genistein], the “Urinary concentration, Unconjugated” value came to 31 pmoles / mg creatinine in [8] (pooled dog urine (n=10), mean) and 29 pmoles / mg creatinine in [9] (pooled cat urine (n=18), mean). The results for the “Vmax, 7-OH-glucuronidation” value in the series on dog liver microsomes, in the series on human liver microsomes and in the series with cat liver microsomes [7] were 5.13 ± 0.2 nmoles/min/mg protein, 1.60 ± 0.07 nmoles/min/mg protein and 2.15 ± 0.1 nmoles/min/mg protein, respectively. Moreover, the Km was found to be 15.3 ± 2.4 µM in series [3], 11.7 ± 2.4 µM in [5] and 10.3 ± 2.5 µM in [6]. Besides, the “Glucuronidation at the 5-OH position” value in series [4] (search for additional HPLC peaks with the same mass spectrum) is on record as “no evidence for glucuronidation at that site”. For the same molecule, the “Rank of cat liver glucuronidation rate among species” value with cat liver microsomes [7] is “within the lowest three out of 13 species”.

As for `COc1cc2c(=O)c(-c3ccc(O)cc3)coc2cc1O` [Glycitein, glycitein], in series [8] (pooled dog urine (n=10), mean), the “Urinary concentration, Unconjugated” value is given as 9 pmoles / mg creatinine.

Turning to `CC(C(=O)c1ccc(O)cc1O)c1ccc(O)cc1` (stereo not drawn) [O-desmethylangolensin], the “Detection of metabolite in urine” value in series [1] and in [2] was “not detected” each time.

For `Oc1ccc(C2=Cc3ccc(O)cc3OC2)cc1` [dehydroequol], the “Detection of metabolite in urine” value in series [8] (dog urine, before or after treatment with deconjugation enzymes) was “not detected”; in series [9] (cat urine, before or after treatment with deconjugation enzymes), “not detected”.

Regarding `C[C@]12CC[C@@H]3c4ccc(O)cc4CC[C@H]3[C@@H]1CC[C@@H]2O` [estradiol, β-estradiol], the “Rank of estradiol glucuronidation among 13 species” value in [10] was “fifth”; in the series with ferret liver microsomes it was “third lowest”; with cat liver microsomes [11], “sixth lowest”.
